Reference: patent US9540345B2, “Antiviral compounds” (priority 2013, dated 2017)
Structures can show the parent of a compound that is named as a salt. Where two headings read alike, the source gives them in different places.

What was measured:
[1] = test system: pseudotyped VSV G particles (VSVpp); assay: microbe, parasite or virus in culture; format: cell-based, vesicular stomatitis virus
[2] = test system: pseudotyped HCV GT1b particles (HCVpp); assay: microbe, parasite or virus in culture; format: cell-based, HCV GT1b Con1 strain
[3] = Vesicular stomatitis virus, 72 h, read-out: VSVpp (EC50, μM)
[4] = Hepatitis C virus, GT1B, 72 h, read-out: HCVpp GT-1b (EC50, μM)

In the case of “5-[4-(5-Amino-1H-[1,2,4]triazol-3-ylamino)-2-chloro-6-trifluoromethyl-phenyl]-pyridine-2-sulfonic acid tert-butylamide [Compound 24]”, the EC50 ([1]; read-out: VSVpp (EC50)) is reported as 4.1 µM and the EC50 ([2]; read-out: HCVpp GT-1b (EC50)) is reported as 0.008 µM.

With `COc1ccc(-c2c(Cl)cc(Nc3n[nH]c(N)n3)cc2Cl)cn1` [Compound 1, N*3*-[3,5-Dichloro-4-(6-methoxy-pyridin-3-yl)-phenyl]-1H-[1,2,4]triazole-3,5-diamine] the EC50 [1, 3] was 3.7 µM and the EC50 [2, 4] was 0.767 µM.

`CS(=O)(=O)c1cncc(-c2c(Cl)cc(Nc3n[nH]c(N)n3)cc2Cl)c1` [Compound 2, N*3*-[3,5-Dichloro-4-(5-methanesulfonyl-pyridin-3-yl)-phenyl]-1H-[1,2,4]triazole-3,5-diamine] was tested, and the EC50 [1, 3] was at least 10 µM and the EC50 [2, 4] was 0.386 µM.

`Nc1nc(Nc2cc(Cl)c(-c3ccc(=O)[nH]c3)c(Cl)c2)n[nH]1` [Compound 3, 5-[4-(5-Amino-1H-[1,2,4]triazol-3-ylamino)-2,6-dichloro-phenyl]-1H-pyridin-2-one] was tested, and the EC50 [1, 3] was at least 10 µM and the EC50 [2, 4] was 0.364 µM.

With `Nc1ccc(-c2c(Cl)cc(Nc3n[nH]c(N)n3)cc2Cl)cn1` [Compound 4, N*3*-[4-(6-Amino-pyridin-3-yl)-3,5-dichloro-phenyl]-1H-[1,2,4]triazole-3,5-diamine] the EC50 [1, 3] was 1.4 µM and the EC50 [2, 4] was 0.173 µM.

For `Nc1ncc(-c2c(Cl)cc(Nc3n[nH]c(N)n3)cc2Cl)cn1` [Compound 5, N*3*-[4-(2-Amino-pyrimidin-5-yl)-3,5-dichloro-phenyl]-1H-[1,2,4]triazole-3,5-diamine], the EC50 [1, 3] was 0.4 µM and the EC50 [2, 4] was 0.1 µM.

`COc1cc(-c2c(Cl)cc(Nc3n[nH]c(N)n3)cc2Cl)ccn1` [Compound 6, N3-(3,5-dichloro-4-(2-methoxypyridin-4-yl)phenyl)-1H-1,2,4-triazole-3,5-diamine] gave an EC50 [1, 3] of at least 10 µM and an EC50 [2, 4] of 0.33 µM.

`Nc1nc(Nc2cc(Cl)c(-c3cc[nH]c(=O)c3)c(Cl)c2)n[nH]1` [Compound 7, 4-[4-(5-Amino-1H-[1,2,4]triazol-3-ylamino)-2,6-dichloro-phenyl]-1H-pyridin-2-one] was tested, and the EC50 [1, 3] was at least 10 µM and the EC50 [2, 4] was 0.809 µM.

`CS(=O)(=O)Nc1ccc(-c2c(Cl)cc(Nc3n[nH]c(N)n3)cc2Cl)cn1` [Compound 8, N-{5-[4-(5-Amino-1H-[1,2,4]triazol-3-ylamino)-2,6-dichloro-phenyl]-pyridin-2-yl}-methanesulfonamide] was tested, and the EC50 [1, 3] was at least 10 µM and the EC50 [2, 4] was 0.386 µM.

For `Nc1n[nH]c(Nc2cc(F)c(-c3ccc(F)nc3)c(C(F)(F)F)c2)n1` [Compound 9, N^5-(3-Fluoro-4-(6-fluoropyridin-3-yl)-5-trifluoromethylphenyl)-1H-[1,2,4]-triazole-3,5-diamine], the EC50 [1, 3] was 31.1 µM and the EC50 [2, 4] was 0.998 µM.

`Nc1n[nH]c(Nc2cc(F)c(-c3cccnc3)c(C(F)(F)F)c2)n1` [Compound 10, N^5-(3-Fluoro-4-(pyridin-3-yl)-5-trifluoromethylphenyl)-1H-[1,2,4]-triazole-3,5-diamine] was tested, and the EC50 [1, 3] was 34.2 µM and the EC50 [2, 4] was 1.24 µM.

In the case of `CS(=O)(=O)c1ccc(-c2c(Cl)cc(Nc3nc(N)n[nH]3)cc2Cl)cn1` [Compound 11, N^5-(3,5-Dichloro-4-(6-methanesulfonyl-pyridin-3-yl)-phenyl)-1H-[1,2,4]-triazole-3,5-diamine], the EC50 [1, 3] is reported as 2.2 µM and the EC50 [2, 4] is reported as 0.271 µM.

Work on `CC(C)(C)OC(=O)N1CC2(C1)CN(c1c(Cl)cc(Nc3nc(N)n[nH]3)cc1Cl)C2` [Compound 12, 6-[4-(5-Amino-2H-[1,2,4]triazol-3-ylamino)-2,6-dichlorophenyl]-2,6-diaza-spiro[3.3]heptane-2-carboxylic acid tert-butyl ester] yielded an EC50 [1, 3] of at least 10 µM and an EC50 [2, 4] of 0.216 µM.

With `NCC1(CO)CN(c2c(Cl)cc(Nc3nc(N)n[nH]3)cc2Cl)C1` [Compound 13, {3-Aminomethyl-1-[4-(5-amino-2H-[1,2,4]triazol-3-ylamino)-2,6-dichlorophenyl]-azetidin-3-yl}-methanol] the EC50 [1, 3] was at least 10 µM and the EC50 [2, 4] was 10 µM.

With `Nc1nc(Nc2ccc(-c3cccnn3)c(Cl)c2)n[nH]1` [Compound 14, N3-(3-chloro-4-(pyridazin-3-yl)phenyl)-1H-1,2,4-triazole-3,5-diamine] the EC50 [1, 3] was 15 µM and the EC50 [2, 4] was 6.52 µM.

Compound `Nc1nc(Nc2cc(Cl)c(-n3cccn3)c(Cl)c2)n[nH]1` [Compound 17, N3-(3,5-dichloro-4-(1H-pyrazol-1-yl)phenyl)-1H-1,2,4-triazole-3,5-diamine] has an EC50 [1, 3] of 34.6 µM and an EC50 [2, 4] of 4.14 µM.

With `CC(C)(C)OC(=O)N1CC=C(c2c(Cl)cc(Nc3n[nH]c(N)n3)cc2Cl)CC1` [Compound 18, tert-Butyl 4-(4-(5-amino-1H-1,2,4-triazol-3-ylamino)-2,6-dichlorophenyl)-5,6-dihydropyridine-1(2H)-carboxylate] the EC50 [1, 3] was at least 10 µM and the EC50 [2, 4] was 0.088 µM.

`CC(C)(NS(=O)(=O)c1ccc(-c2c(Cl)cc(Nc3n[nH]c(N)n3)cc2C(F)(F)F)cn1)C(F)(F)F` [Compound 25, 5-[4-(5-Amino-1H-[1,2,4]triazol-3-ylamino)-2-chloro-6-trifluoromethyl-phenyl]-pyridine-2-sulfonic acid (2,2,2-trifluoro-1,1-dimethyl-ethyl)-amide] gave an EC50 [1, 3] of at least 10 µM and an EC50 [2, 4] of 0.005 µM.

In the case of `Nc1nc(Nc2ccc(-n3ccccc3=O)cc2)n[nH]1` [Compound 28, 1-[4-(5-Amino-1H-[1,2,4]triazol-3-ylamino)-phenyl]-1H-pyridin-2-one], the EC50 [1, 3] is reported as at least 100 µM and the EC50 [2, 4] is reported as 100 µM.

With `Nc1nc(Nc2ccc(-n3ccccc3=O)c(Cl)c2)n[nH]1` [Compound 29, 1-[4-(5-Amino-1H-[1,2,4]triazol-3-ylamino)-2-chloro-phenyl]-1H-pyridin-2-one] the EC50 [1, 3] was 8.1 µM and the EC50 [2, 4] was 13.7 µM.

In the case of `Nc1nc(Nc2cc(Cl)c(-n3ccccc3=O)c(Cl)c2)n[nH]1` [Compound 30, 1-[4-(5-Amino-1H-[1,2,4]triazol-3-ylamino)-2,6-dichloro-phenyl]-1H-pyridin-2-one], the EC50 [1, 3] is reported as 5.6 µM and the EC50 [2, 4] is reported as 5.75 µM.

For `Nc1nc(Nc2cc(Cl)c(C3=NCCCN3)c(Cl)c2)n[nH]1` [Compound 31, N3-(3,5-dichloro-4-(1,4,5,6-tetrahydropyrimidin-2-yl)phenyl)-1H-1,2,4-triazole-3,5-diamine. trifluoroacetic salt], the EC50 [1, 3] was 4.7 µM and the EC50 [2, 4] was 5.45 µM.

`CNC(=O)c1ccc(-c2c(Cl)cc(Nc3n[nH]c(N)n3)cc2C(F)(F)F)cn1` [Compound 32, 5-(4-(5-amino-1H-1,2,4-triazol-3-ylamino)-2-chloro-6-(trifluoromethyl)phenyl)-N-methylpicolinamide] showed an EC50 [1, 3] of 21.8 µM and an EC50 [2, 4] of 0.169 µM.

`Nc1nc(Nc2cc(Cl)c(-c3ccnnc3)c(Cl)c2)n[nH]1` [Compound 33, N3-(3,5-dichloro-4-(pyridazin-4-yl)phenyl)-1H-1,2,4-triazole-3,5-diamine] gave an EC50 [1, 3] of 10.6 µM and an EC50 [2, 4] of 0.78 µM.

With `CC(=O)c1sccc1-c1c(Cl)cc(Nc2n[nH]c(N)n2)cc1Cl` [Compound 34, 1-{3-[4-(5-Amino-1H-[1,2,4]triazol-3-ylamino)-2,6-dichloro-phenyl]-thiophen-2-yl}-ethanone] the EC50 [1, 3] was 1.8 µM and the EC50 [2, 4] was 0.144 µM.

`Nc1nc(Nc2cc(Cl)c(-c3ccncc3)c(Cl)c2)n[nH]1` [Compound 35, N-3-(3,5-Dichloro-4-(pyridin-4-yl)phenyl)-1H-1,2,4-triazole-3,5-diamine] was tested, and the EC50 [1, 3] was 2.5 µM and the EC50 [2, 4] was 0.338 µM.

`Nc1nc(Nc2cc(Cl)c(-c3ccc(Cl)s3)c(Cl)c2)n[nH]1` [Compound 36, N-3-[3,5-Dichloro-4-(5-chloro-thiophen-2-yl)-phenyl]-1H-[1,2,4]triazole-3,5-diamine] showed an EC50 [1, 3] of 11.9 µM and an EC50 [2, 4] of 0.558 µM.

For `Nc1nc(Nc2cc(Cl)c(-c3cccnc3)c(Cl)c2)n[nH]1` [Compound 37, N-3-(3,5-Dichloro-4-pyridin-3-yl-phenyl)-1H-[1,2,4]triazole-3,5-diamine], the EC50 [1, 3] was 8.1 µM and the EC50 [2, 4] was 0.413 µM.

`Nc1nc(Nc2cc(Cl)c(-c3cc[nH]n3)c(Cl)c2)n[nH]1` [Compound 38, N-3-[3,5-Dichloro-4-(1H-pyrazol-3-yl)-phenyl]-1H-[1,2,4]triazole-3,5-diamine] showed an EC50 [1, 3] of 35.8 µM and an EC50 [2, 4] of 3.39 µM.

For `Nc1nc(Nc2cc(Cl)c(-c3cncnc3)c(Cl)c2)n[nH]1` [Compound 39, N-3-(3,5-Dichloro-4-pyrimidin-5-yl-phenyl)-1H-[1,2,4]triazole-3,5-diamine], the EC50 [1, 3] was 5.1 µM and the EC50 [2, 4] was 0.536 µM.

`COc1ncc(-c2c(Cl)cc(Nc3n[nH]c(N)n3)cc2Cl)cn1` [Compound 40, N-3-[3,5-Dichloro-4-(2-methoxy-pyrimidin-5-yl)-phenyl]-1H-[1,2,4]triazole-3,5-diamine] gave an EC50 [1, 3] of 3.3 µM and an EC50 [2, 4] of 0.52 µM.

For `Nc1nc(Nc2cc(Cl)c(-c3ccc(C(F)(F)F)nc3)c(Cl)c2)n[nH]1` [Compound 41, N-3-[3,5-Dichloro-4-(6-trifluoromethyl-pyridin-3-yl)-phenyl]-1H-[1,2,4]triazole-3,5-diamine], the EC50 [1, 3] was 32.6 µM and the EC50 [2, 4] was 0.703 µM.

For “N3-(2-chloro-4′-(4-methylpiperazin-1-yl)-6-(trifluoromethyl)biphenyl-4-yl)-1H-1,2,4-triazole-3,5-diamine [Compound 27]”, the EC50 ([2]; read-out: HCVpp GT-1b (EC50)) was 0.301 µM.

With “N3-(3,5-dichloro-4-(1,2,3,6-tetrahydropyridin-4-yl)phenyl)-1H-1,2,4-triazole-3,5-diamine [Compound 19]” the EC50 ([2]; read-out: HCVpp GT-1b (EC50)) was 0.505 µM.

“N3-(3-Chloro-4-(1-methyl-1H-tetrazol-5-yl)phenyl)-1H-1,2,4-triazole-3,5-diamine [Compound 15]” showed an EC50 ([2]; read-out: HCVpp GT-1b (EC50)) of 6.72 µM.

“N3-(3-chloro-4-(1-methyl-1H-1,2,4-triazol-5-yl)phenyl)-1H-1,2,4-triazole-3,5 diamine [Compound 16]” showed an EC50 ([2]; read-out: HCVpp GT-1b (EC50)) of 34.8 µM.

Work on “N3-[3-Chloro-4-(1,2,3,6-tetrahydro-pyridin-4-yl)-5-trifluoromethyl-phenyl]-1H-[1,2,4]triazole-3,5-diamine hydrochloride [Compound 21]” yielded an EC50 ([2]; read-out: HCVpp GT-1b (EC50)) of 0.568 µM.

For “N*3*-(3,5-Dichloro-4-[1,2,4]triazolo[4,3-a]pyridin-3-yl-phenyl)-1H-[1,2,4]triazole-3,5-diamine [Compound 22]”, the EC50 ([2]; read-out: HCVpp GT-1b (EC50)) was 2.04 µM.
